We go through 5 compounds from patent EP4741392A1, “1H-PYRAZOLO[4,3-C]PYRIDINE COMPOUND, AND COMPOSITION THEREOF AND USE THEREOF” (Shenzhen TargetRx Co., Ltd., priority 2023, dated 2025).

Common to all, as to assay type: cell-based
The test system of one test is OCI-LY10 cells. Description: Viability assay of OCI-LY10 cells (CTG). To be noted: Homo sapiens, OCI-Ly10, 120 h, cell viability, read-out: OCl-Ly10. Summed up:
(§1)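 TMD8 (RPMI 1640, 10% FBS) and OCI-LY10 (IMDM, 20% FBS, 0.05 mM 2-mercaptoethanol) cells seeded at 1500 per well, then treated 120 h at 37 °C with compound, top final 1000 nM, 9 points, 3-fold, triplicate. CellTiter-Glo luminescence; IC50 by four-parameter logistic fit versus DMSO.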

A further test deals with NIH/3T3 BTK WT cells. Description: Phosphor-BTK(Y223) assay, adherent cells. Conditions: Mus musculus, NIH3T3, phosphorylated BTK Y223, NIH/3T3 BTK WT cells; read-out: NIH/3T3 BTK-WT pBTK. The method in brief:
(§2)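 NIH/3T3 cells expressing WT or C481S BTK were pretreated with compound for 0.5 h at 37 °C, then stimulated with 1 mM Na3VO4 (final) for 2 h. Lysates were assayed by HTRF for p-BTK Y223 using the 665/620 nm ratio. IC50 was obtained by nonlinear fit of % inhibition versus 0.5% DMSO control.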

A further test deals with NIH/3T3 BTK C481S cells. Briefly: Phosphor-BTK(Y223) assay, adherent cells. To be noted: Mus musculus, NIH3T3, phosphorylated BTK Y223, NIH/3T3 BTK C481S cells; read-out: NIH/3T3 BTK-C481S pBTK. Summed up:
as §2

In a further test the test system is TMD8 cells. Description: Viability assay of TMD8 cells (CTG). To be noted: Homo sapiens, cell viability, 120 hours. The method in brief:
as §1

Some results are limits rather than exact numbers.

`COc1ccc(F)cc1C(=O)NCc1ccc(-c2nc(C(F)F)c(-c3ncccn3)c3[nH]nc(N)c23)cc1` [Example 85, N-(4-(3-amino-6-(difluoromethyl)-7-(pyrimidin-2-yl)-1H-pyrazolo[4,3-c]pyridin-4-yl)benzyl)-5-fluoro-2-methoxybenzamide]: the IC50 is 10 to 50 nM in the test on OCI-LY10 cells, at most 5 nM with NIH/3T3 BTK WT cells, 5 to 10 nM with NIH/3T3 BTK C481S cells and at most 5 nM in the test with TMD8 cells.

`COc1ccc(F)cc1C(=O)NCc1ccc(-c2nc(C3CCSCC3)cc3[nH]nc(N)c23)cc1` [Example 91, N-(4-(3-amino-6-(tetrahydro-2H-thiopyran-4-yl)-1H-pyrazolo[4,3-c]pyridin-4-yl)benzyl)-5-fluoro-2-methoxybenzamide]: the IC50 in the test with OCI-LY10 cells is at most 5 nM; with NIH/3T3 BTK WT cells, at most 5 nM; in the test with NIH/3T3 BTK C481S cells, 5 to 10 nM; in the test on TMD8 cells it was at most 5 nM.

Regarding `C=CC(=O)N1CCCC(c2cc3[nH]nc(N)c3c(-c3ccc(CNC(=O)c4cc(F)ccc4OC)cc3)n2)C1` (centres unmarked) [Example 96, N-(4-(6-(1-acryloylpiperidin-3-yl)-3-amino-1H-pyrazolo[4,3-c]pyridin-4-yl)benzyl)-5-fluoro-2-methoxybenzamide], the IC50 is at most 5 nM in the test on OCI-LY10 cells, 10 to 50 nM in the test with NIH/3T3 BTK WT cells, over 50 nM in the test with NIH/3T3 BTK C481S cells and at most 5 nM with TMD8 cells.

Take `COc1ccc(F)cc1C(=O)NCc1ccc(-c2nc(C3CCOCC3)cc3[nH]nc(N)c23)cc1` [Example 115, N-(4-(3-amino-6-(tetrahydro-2H-pyran-4-yl)-1H-pyrazolo[4,3-c]pyridin-4-yl)benzyl)-5-fluoro-2-methoxybenzamide]: the IC50 is 10 to 50 nM in the test with OCI-LY10 cells, at most 5 nM with NIH/3T3 BTK WT cells, 5 to 10 nM in the test on NIH/3T3 BTK C481S cells and 10 to 50 nM in the test on TMD8 cells.

In the case of `COc1ccc(F)cc1C(=O)NCc1ccc(-c2nc([C@H]3CC[C@H](CO)CC3)cc3[nH]nc(N)c23)cc1` [Example 117, N-(4-(3-amino-6-((1r,4r)-4-(hydroxymethyl)cyclohexyl)-1H-pyrazolo[4,3-c]pyridin-4-yl)benzyl)-5-fluoro-2-methoxybenzamide], the IC50 with OCI-LY10 cells was at most 5 nM; in the test with NIH/3T3 BTK WT cells it was 10 to 50 nM; in the test with NIH/3T3 BTK C481S cells, 10 to 50 nM; with TMD8 cells it was at most 5 nM.
